One assay concerns the target Dipeptidyl peptidase 4 (Homo sapiens, UniProt P27487).
In another assay the test system is Mus musculus. In words: Antidiabetic activity in ICR mouse assessed as deduction of glucose excursion at 0.3 to 10 mg/kg, po administered 30 mins before oral glucose challenge measured up to 120 mins by oral glucose tolerance test. Type of assay: functional, organism-based.

Active and inactive are the calls of the source. The rule behind the calls is not given here.

Chain of Dipeptidyl peptidase 4 (P27487 whole entry): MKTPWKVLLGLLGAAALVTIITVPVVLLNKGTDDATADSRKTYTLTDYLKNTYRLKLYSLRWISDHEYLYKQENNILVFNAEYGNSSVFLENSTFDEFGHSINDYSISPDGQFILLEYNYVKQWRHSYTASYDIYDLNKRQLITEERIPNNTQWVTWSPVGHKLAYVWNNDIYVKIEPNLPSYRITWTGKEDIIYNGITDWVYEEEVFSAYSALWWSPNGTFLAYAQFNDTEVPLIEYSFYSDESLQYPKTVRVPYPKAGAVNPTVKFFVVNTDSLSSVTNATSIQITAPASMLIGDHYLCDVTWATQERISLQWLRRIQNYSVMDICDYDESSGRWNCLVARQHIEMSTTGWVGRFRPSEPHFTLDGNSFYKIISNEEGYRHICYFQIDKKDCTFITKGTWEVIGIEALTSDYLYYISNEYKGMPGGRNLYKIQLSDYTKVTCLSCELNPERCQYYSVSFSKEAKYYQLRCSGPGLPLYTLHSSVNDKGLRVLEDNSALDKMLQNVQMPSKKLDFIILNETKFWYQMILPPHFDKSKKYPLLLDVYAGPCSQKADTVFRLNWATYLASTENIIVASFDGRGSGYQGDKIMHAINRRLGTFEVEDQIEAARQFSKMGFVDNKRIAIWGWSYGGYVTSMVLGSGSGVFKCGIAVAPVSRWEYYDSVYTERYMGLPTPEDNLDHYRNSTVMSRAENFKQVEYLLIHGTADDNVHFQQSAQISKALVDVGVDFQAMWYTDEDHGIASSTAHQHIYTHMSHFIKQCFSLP
Description for Dipeptidyl peptidase 4: Inhibition of DPP4 by chemical luminescent assay

By IC50 is commonly meant the concentration at which inhibition is half-maximal. `CC(C)NC(=O)O[C@H]1C[C@H]2C[C@@H](NCC(=O)N3CCC[C@H]3C#N)C[C@H]2C1` had an IC50 at Dipeptidyl peptidase 4 of 204 nM. This lies in the sub-micromolar range. `CO[C@H]1C[C@H]2C[C@@H](NCC(=O)N3CCC[C@H]3C#N)C[C@H]2C1`: the outcome in the assay on Mus musculus was Active.

Consider `CC(C)(C)NC(=O)O[C@H]1C[C@H]2C[C@@H](NCC(=O)N3CCC[C@H]3C#N)C[C@H]2C1`, for which the IC50 against Dipeptidyl peptidase 4 was 326 nM. On to `N#C[C@@H]1CCCN1C(=O)CN[C@@H]1C[C@@H]2C[C@H](OC(=O)Nc3ccccc3)C[C@@H]2C1`, for which the IC50 against Dipeptidyl peptidase 4 worked out at 121 nM. Consider `N#C[C@@H]1CCCN1C(=O)CN[C@H]1C[C@H]2C[C@@H](O)C[C@H]2C1`, for which the outcome in the assay on Mus musculus was Active.
